Our source for the IC50 values is US10189841B2, “Purinones as ubiquitin-specific protease 1 inhibitors” (Forma Therapeutics, Inc., priority 2015, dated 2019).

The target of this assay is USP1 (construct USP1 (I-785, GG670, 671AA)/UAF1 (I-677)-Flag) (Homo sapiens (Human), UniProt O94782, G670A/G671A). The experiment in a line: Ubiquitin-Rhodamine 110 assay for USP1 activity. Type of assay: biochemical. The following applies: USP1/UAF1 25 pM, Ub-Rh110 25 nM, 30 min preincubation. On the procedure: Example 53: Ubitquin-Rhodamine 110 Assay for USP1 Activity
Sequence of USP1 (construct USP1 (I-785, GG670, 671AA)/UAF1 (I-677)-Flag) (O94782 whole entry G670A/G671A): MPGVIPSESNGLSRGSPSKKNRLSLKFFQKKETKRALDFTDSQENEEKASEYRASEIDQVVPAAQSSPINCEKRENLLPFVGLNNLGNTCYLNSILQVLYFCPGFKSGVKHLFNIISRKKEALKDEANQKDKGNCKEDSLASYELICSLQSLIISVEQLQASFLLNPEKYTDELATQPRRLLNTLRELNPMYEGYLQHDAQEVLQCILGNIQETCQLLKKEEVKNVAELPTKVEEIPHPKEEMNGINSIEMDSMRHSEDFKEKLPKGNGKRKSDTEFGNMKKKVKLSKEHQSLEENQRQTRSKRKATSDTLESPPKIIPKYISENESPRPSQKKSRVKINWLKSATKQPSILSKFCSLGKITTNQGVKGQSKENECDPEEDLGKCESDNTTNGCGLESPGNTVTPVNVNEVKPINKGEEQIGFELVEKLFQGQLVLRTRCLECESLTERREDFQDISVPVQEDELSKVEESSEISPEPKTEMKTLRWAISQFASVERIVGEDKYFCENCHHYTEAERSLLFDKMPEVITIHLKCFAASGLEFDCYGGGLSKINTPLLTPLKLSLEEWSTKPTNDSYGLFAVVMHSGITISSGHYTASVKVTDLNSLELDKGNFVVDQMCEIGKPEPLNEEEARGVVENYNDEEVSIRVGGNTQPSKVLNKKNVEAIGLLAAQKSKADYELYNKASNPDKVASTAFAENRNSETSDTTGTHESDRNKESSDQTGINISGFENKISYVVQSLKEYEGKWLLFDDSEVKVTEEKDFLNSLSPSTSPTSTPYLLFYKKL
Sequence of USP1 (construct USP1 (I-785, GG670, 671AA)/UAF1 (I-677)-Flag) (Q8TAF3 whole entry partner): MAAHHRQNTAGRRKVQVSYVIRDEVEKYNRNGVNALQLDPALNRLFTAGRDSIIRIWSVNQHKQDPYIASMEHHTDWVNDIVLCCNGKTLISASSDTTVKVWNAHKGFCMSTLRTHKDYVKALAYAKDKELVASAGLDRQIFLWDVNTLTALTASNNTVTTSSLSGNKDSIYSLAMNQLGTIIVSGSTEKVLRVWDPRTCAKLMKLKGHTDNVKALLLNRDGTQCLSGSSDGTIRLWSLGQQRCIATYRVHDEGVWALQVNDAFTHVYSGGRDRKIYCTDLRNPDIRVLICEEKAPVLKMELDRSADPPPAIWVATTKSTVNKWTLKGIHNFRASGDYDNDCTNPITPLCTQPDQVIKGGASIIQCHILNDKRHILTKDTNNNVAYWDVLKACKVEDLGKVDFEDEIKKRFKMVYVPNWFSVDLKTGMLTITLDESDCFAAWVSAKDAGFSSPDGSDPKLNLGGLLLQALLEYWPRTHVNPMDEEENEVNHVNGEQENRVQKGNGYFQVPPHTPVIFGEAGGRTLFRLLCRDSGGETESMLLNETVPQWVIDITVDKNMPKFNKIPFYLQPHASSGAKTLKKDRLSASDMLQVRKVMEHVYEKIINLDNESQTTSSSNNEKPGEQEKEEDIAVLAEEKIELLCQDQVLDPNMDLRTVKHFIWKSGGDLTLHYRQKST
The HTS assay was performed in a final volume of 20 μL in assay buffer containing 20 mM Tris-HCl (pH 8.0, (1M Tris-HCl, pH 8.0 solution; Corning 46-031-CM)), 2 mM CaCl2 (1M Calcium Chloride solution; Sigma #21114) 1 mM GSH (L-Glutathione reduced; Sigma #G4251), 0.01% Prionex ([…] filtered, Sigma #G-0411), and 0.01% Triton X-100. Stock compound solutions were stored at −20° C. as 10 mM in DMSO. Up to 1 month prior to the assay, 2 mM test compounds were pre-dispensed into assay plates (Black, low volume; Corning #3820) and frozen at −20° C. Prestamped assay plates were allowed to come to room temperature on the day of the assay. For the screen, 100 nL of 2 mM was pre-dispensed for a final screening concentration of […] (DMSO(fc)=0.5%). The final concentration of the enzyme (USP1, construct USP1 (I-785, GG670, 671AA)/UAF1 (I-677)-Flag; Viva) in the assay was 100 pM. Final substrate (Ub-Rh110; Ubiquitin-Rhodamine 110, R&D Systems #U-555) concentration was 25 nM with [Ub-Rh110]<<Km. […] Plates were incubated stacked for 45 minutes at room temperature before fluorescence was read on the Envision (Excitation at 485 nm and Emission at 535 nm; Perkin Elmer) or on the PheraSTAR (Excitation at 485 nm and Emission at 535 nm; BMG Labtech)
Nanoliter quantities of either an 8-point or 10-point, 3-fold serial dilution in DMSO was pre-dispensed into assay plates (Perkin Elmer, ProxiPlate-384 F Plus, #6008269) for a final test concentration range of either 25 μM to 11 nM or 25 μM to 1.3 nM, respectively. The final concentration of the enzyme (USP1, construct USP1 (I-785, GG670, 671AA)/UAF1 (I-677)-Flag; Viva) in the assay was 25 pM. Final substrate (Ub-Rh110; Ubiquitin-Rhodamine 110, R&D Systems #U-555) concentration was 25 nM with [Ub-Rh110]<<Km. […] Plates were incubated stacked for 20 minutes at room temperature before 5 μL of stop solution (final concentration of 10 mM citric acid in assay buffer (Sigma, #251275-500G)). Fluorescence was read on the Envision (Excitation at 485 nm and Emission at 535 nm; Perkin Elmer) or on the PheraSTAR (Excitation at 485 nm and Emission at 535 nm; BMG Labtech).
For both assay formats data were reported as percent inhibition compared with control wells based on the following equation: % inh=[1−((FLU−AveLow)/(AveHigh−AveLow))]×100 where FLU=measured Fluorescence, AveLow=average Fluorescence of no enzyme control (n=16), and AveHigh=average Fluorescence of DMSO control (n=16). IC50 values were determined by curve fitting of the standard 4 parameter logistic fitting algorithm included in the Activity Base software package: IDBS XE Designer Model205. Data is fitted using the Levenburg Marquardt algorithm.
Regarding `Cn1cc(C(F)(F)F)nc1-c1ccc(Cn2c(=O)[nH]c3cnc(-c4ccccc4C(C)(C)O)nc32)cc1` [Compound I-525, 2-(2-(2-hydroxypropan-2-yl)phenyl)-9-(4-(1-methyl-4-(trifluoromethyl)-1H-imidazol-2-yl)benzyl)-7,9-dihydro-8H-purin-8-one], the half-inhibitory concentration (IC50) (usually the concentration needed to halve the response being measured) was below 50 nM.

As for `Cn1cc(C(F)(F)F)nc1-c1ccc(Cn2c(=O)[nH]c3cnc(-c4cccnc4C4CC4)nc32)cc1` [Compound I-30, 2-(2-cyclopropylpyridin-3-yl)-9-(4-(1-methyl-4-(trifluoromethyl)-1H-imidazol-2-yl)benzyl)-7,9-dihydro-8H-purin-8-one], the concentration for half-maximal inhibition (IC50) is below 50 nM.

Turning to `Cc1nc(-c2ccc(Cn3c(=O)[nH]c4cnc(-c5ccccc5C(C)C)nc43)cc2)n(C)n1` [Compound I-296, 9-(4-(1,3-dimethyl-1H-1,2,4-triazol-5-yl)benzyl)-2-(2-isopropylphenyl)-7,9-dihydro-8H-purin-8-one], the IC50 is below 50 nM.

Take `CC(C)c1ccccc1-c1ncc2[nH]c(=O)n([C@H](C)c3ccccc3)c2n1` [Compound I-155, (R)-2-(2-isopropylphenyl)-9-(1-phenylethyl)-7,9-dihydro-8H-purin-8-one]: the IC50 lay in the range of 50 to 200 nM.

For the compound `CC(C)c1ccccc1-c1ncc2[nH]c(=O)n(Cc3ccc(-n4cccn4)cc3)c2n1` [Compound I-145, 9-(4-(1H-pyrazol-1-yl)benzyl)-2-(2-isopropylphenyl)-7,9-dihydro-8H-purin-8-one], the 50% inhibitory concentration (IC50) is below 50 nM.

Consider `CCC(COC)Oc1ncccc1-c1ncc2[nH]c(=O)n(Cc3ccc(-c4nc(C(F)(F)F)cn4C)cc3)c2n1` (centres unmarked) [Compound I-428, 2-(2-((1-methoxybutan-2-yl)oxy)pyridin-3-yl)-9-(4-(1-methyl-4-(trifluoromethyl)-1H-imidazol-2-yl)benzyl)-7,9-dihydro-8H-purin-8-one], for which the half-maximal inhibitory concentration (IC50) lay in the range of 50 to 200 nM.

As to `CC(C)c1ccccc1-c1ncc2[nH]c(=O)n([C@H](CO)c3ccc(F)cc3)c2n1` [Compound I-180, (S)-9-(1-(4-fluorophenyl)-2-hydroxyethyl)-2-(2-isopropylphenyl)-7,9-dihydro-8H-purin-8-one], the IC50 lay in the range of 50 to 200 nM.

In turn, `CC(C)NC(=O)Nc1ccc(Cn2c(=O)n(C)c3cnc(-c4ccccc4C(C)C)nc32)cc1` [Compound I-481, 1-isopropyl-3-(4-((2-(2-isopropylphenyl)-7-methyl-8-oxo-7,8-dihydro-9H-purin-9-yl)methyl)phenyl)urea] showed an IC50 of 50 to 200 nM.

For the compound `COc1c(F)cccc1-c1ncc2[nH]c(=O)n(Cc3ccc(-n4nccn4)cc3)c2n1` [Compound I-16, 9-(4-(2H-1,2,3-triazol-2-yl)benzyl)-2-(3-fluoro-2-methoxyphenyl)-7,9-dihydro-8H-purin-8-one], the IC50 was above 2000 nM.

In the case of `CC(C)c1ccccc1-c1ncc2c(n1)n(CC1CCN(S(=O)(=O)c3nccn3C)CC1)c(=O)n2C` [Compound I-451, 2-(2-isopropylphenyl)-7-methyl-9-((1-((1-methyl-1H-imidazol-2-yl)sulfonyl)piperidin-4-yl)methyl)-7,9-dihydro-8H-purin-8-one], the IC50 lay in the range of 200 to 2000 nM.

Compound `CC(C)c1ccccc1-c1ncc2c(n1)n(Cc1ccc(-c3cn(C)nn3)cc1)c(=O)n2C` [Compound I-287, 2-(2-isopropylphenyl)-7-methyl-9-(4-(1-methyl-1H-1,2,3-triazol-4-yl)benzyl)-7,9-dihydro-8H-purin-8-one] showed a 50% inhibitory concentration (IC50) below 50 nM.

On to `CC(C)c1ccccc1-c1ncc2c(n1)n(Cc1ccc(N(C)S(=O)(=O)c3nccn3C)cc1)c(=O)n2C` [Compound I-457, N-(4-((2-(2-isopropylphenyl)-7-methyl-8-oxo-7,8-dihydro-9H-purin-9-yl)methyl)phenyl)-N,1-dimethyl-1H-imidazole-2-sulfonamide], for which the IC50 is 50 to 200 nM.

For `Cc1nc(-c2ccc(Cn3c(=O)n(C)c4cnc(-c5ccccc5C(C)C)nc43)cc2)n(C)n1` [Compound I-283, 9-(4-(1,3-dimethyl-1H-1,2,4-triazol-5-yl)benzyl)-2-(2-isopropylphenyl)-7-methyl-7,9-dihydro-8H-purin-8-one], the half-inhibitory concentration (IC50) was below 50 nM.

As to `Cn1cc(C(F)(F)F)nc1-c1ccc(Cn2c(=O)n(C3CC3)c3cnc(-c4cccnc4C4CC4)nc32)cc1` [Compound I-101, 7-cyclopropyl-2-(2-cyclopropylpyridin-3-yl)-9-(4-(1-methyl-4-(trifluoromethyl)-1H-imidazol-2-yl)benzyl)-7,9-dihydro-8H-purin-8-one], the IC50 was below 50 nM.

Consider `CCN(CC)c1ncccc1-c1ncc2[nH]c(=O)n(Cc3ccc(-c4nc(C(F)(F)F)cn4C)cc3)c2n1` [Compound I-324, 2-(2-(diethylamino)pyridin-3-yl)-9-(4-(1-methyl-4-(trifluoromethyl)-1H-imidazol-2-yl)benzyl)-7,9-dihydro-8H-purin-8-one], for which the half-maximal inhibitory concentration (IC50) was below 50 nM.

Consider `CC(C)c1ncccc1-c1ncc2[nH]c(=O)n(Cc3ccc(-c4nc(C(F)(F)F)cn4C4CN(C)C4)cc3)c2n1` [Compound I-438, 2-(2-Isopropylpyridin-3-yl)-9-(4-(1-(1-methylazetidin-3-yl)-4-(trifluoromethyl)-1H-imidazol-2-yl)benzyl)-7,9-dihydro-8H-purin-8-one], for which the IC50 was below 50 nM.

The compound `O=c1[nH]c2cnc(-c3cccnc3C3CC3)nc2n1Cc1ccc(-c2nc(C(F)(F)F)cn2C2COC2)cc1` [Compound I-33, 2-(2-cyclopropylpyridin-3-yl)-9-(4-(1-(oxetan-3-yl)-4-(trifluoromethyl)-1H-imidazol-2-yl)benzyl)-7,9-dihydro-8H-purin-8-one] returned an IC50 below 50 nM.

`CC(C)c1ccccc1-c1ncc2[nH]c(=O)n([C@H](C)c3ccc(-n4nccn4)cc3)c2n1` [Compound I-142, (R)-9-(1-(4-(2H-1,2,3-triazol-2-yl)phenyl)ethyl)-2-(2-isopropylphenyl)-7,9-dihydro-8H-purin-8-one] displayed a half-maximal inhibitory concentration (IC50) of 200 to 2000 nM.

Compound `CC(C)c1ccccc1-c1ncc2[nH]c(=O)n([C@@H]3CCOc4ccccc43)c2n1` [Compound I-159, (R)-9-(chroman-4-yl)-2-(2-isopropylphenyl)-7,9-dihydro-8H-purin-8-one] came in with an IC50 of 200 to 2000 nM.

With `Cn1cc(C(F)(F)F)nc1-c1ccc(Cn2c(=O)[nH]c3cnc(-c4cccnc4NC4CC4)nc32)cc1` [Compound I-314, 2-(2-(cyclopropylamino)pyridin-3-yl)-9-(4-(1-methyl-4-(trifluoromethyl)-1H-imidazol-2-yl)benzyl)-7,9-dihydro-8H-purin-8-one], the IC50 is below 50 nM.

As to `CC(C)c1ccccc1-c1ncc2[nH]c(=O)n([C@H](C)c3ccc(-n4cccn4)cc3)c2n1` (single isomer, unassigned) [Compound I-158], the IC50 was below 50 nM.

The compound `CNc1nc(-c2ccccc2C(C)C)nc2c1[nH]c(=O)n2Cc1ccc(-c2nc(C(F)(F)F)cn2C)cc1` [Compound I-532, 2-(2-Isopropylphenyl)-9-(4-(1-methyl-4-(trifluoromethyl)-1H-imidazol-2-yl)benzyl)-6-(methylamino)-7,9-dihydro-8H-purin-8-one] had an IC50 below 50 nM.

Turning to `CC(C)c1ccccc1-c1ncc2[nH]c(=O)n(Cc3ccc(-c4nc(C5CCN(C)CC5)cn4C)cc3)c2n1` [Compound I-445, 2-(2-isopropylphenyl)-9-(4-(1-methyl-4-(1-methylpiperidin-4-yl)-1H-imidazol-2-yl)benzyl)-7,9-dihydro-8H-purin-8-one], the IC50 is below 50 nM.
